Measurements taken from US10202360B2 (CELGENE QUANTICEL RESEARCH, INC., priority 2016, dated 2019).
pIC50: −log10 of the molar value.

Molecular target: CREBBP (Homo sapiens (Human), UniProt Q92793)
Assay: In vitro enzyme inhibition assay - CREBBP inhibition (AlphaScreen, biotinylated H4-tetraacetyl peptide)
Assay type: binding
Settings: Table 28; AlphaScreen, H4-tetraacetyl peptide
Outline: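 Displacement of 20 nM biotinylated tetraacetyl-H4 peptide from 50 nM E. coli-expressed His-CREBBP, measured by AlphaScreen after bead equilibration for 2 h.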

Chain of CREBBP (Q92793 1081-1197): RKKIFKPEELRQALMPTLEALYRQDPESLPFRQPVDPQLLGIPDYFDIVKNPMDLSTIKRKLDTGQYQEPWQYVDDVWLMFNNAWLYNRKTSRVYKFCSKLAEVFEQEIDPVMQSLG

Structure (SMILES) | pIC50
CC[C@@H](C)S(=O)(=O)Nc1cc(-c2ccc(=O)n(C)c2)nc(Oc2c(C)cccc2F)n1 [Example 203, (R)-N-(2-(2-fluoro-6-methylphenoxy)-6-(1-methyl-6-oxo-1,6-dihydropyridin-3-yl)pyrimidin-4-yl)butane-2-sulfonamide] | > 6.30
CCc1ccc(C(C)Nc2cc(-c3ccc(=O)n(C)c3)nc(Oc3c(C)cccc3F)n2)cc1 (centres unmarked) [Example 279, 5-(6-((1-(4-ethylphenyl)ethyl)amino)-2-(2-fluoro-6-methylphenoxy)pyrimidin-4-yl)-1-methylpyridin-2(1H)-one] | > 6.30
CCCS(=O)(=O)Nc1cc(-c2cc(C)c(=O)n(C)c2)nc(Oc2c(Cl)cccc2CC)n1 [Example 42, Propane-1-sulfonic acid [2-(2-chloro-6-ethyl-phenoxy)-6-(1,5-dimethyl-6-oxo-1,6-dihydro-pyridin-3-yl)-pyrimidin-4-yl]-amide] | > 6.30
CCCCS(=O)(=O)Nc1cc(-c2c[nH]c(=O)c(C)c2)nc(Oc2c(C)cccc2Cl)n1 [Example 157, Butane-1-sulfonic acid [2-(2-chloro-6-methyl-phenoxy)-6-(5-methyl-6-oxo-1,6-dihydro-pyridin-3-yl)-pyrimidin-4-yl]-amide] | > 6.30
CCC(F)(F)S(=O)(=O)Nc1cc(-c2ccc(=O)n(C)c2)nc(Oc2c(C)cccc2Cl)n1 [Example 170, 1,1-Difluoro-propane-1-sulfonic acid [2-(2-chloro-6-methyl-phenoxy)-6-(1-methyl-6-oxo-1,6-dihydro-pyridin-3-yl)-pyrimidin-4-yl]-amide] | > 6.30
Cc1cc(F)cc(F)c1Oc1nc(NS(=O)(=O)C(C)C)cc(-c2ccc(=O)n(C)c2)n1 [Example 346, N-(2-(2,4-difluoro-6-methylphenoxy)-6-(1-methyl-6-oxo-1,6-dihydropyridin-3-yl)pyrimidin-4-yl)propane-2-sulfonamide] | > 6.30
CCCC(C)Nc1cc(-c2ccc(=O)n(C)c2)nc(OC)n1 (centres unmarked) [Example 326, 5-[2-Methoxy-6-(1-methyl-butylamino)-pyrimidin-4-yl]-1-methyl-1H-pyridin-2-one] | 5.30 to 6.30
CCCCS(=O)(=O)Nc1cc(-c2cc(C)c(=O)n(C)c2)nc(Oc2cc(C#N)ccc2OC)n1 [Example 10, Butane-1-sulfonic acid [2-(5-cyano-2-methoxy-phenoxy)-6-(1,5-dimethyl-6-oxo-1,6-dihydro-pyridin-3-yl)-pyrimidin-4-yl]-amide] | > 6.30
CCCC(C)S(=O)(=O)Nc1cc(-c2ccc(=O)n(C)c2)nc(Oc2c(F)cccc2Cl)n1 (centres unmarked) [Example 242, Pentane-2-sulfonic acid [2-(2-chloro-6-fluoro-phenoxy)-6-(1-methyl-6-oxo-1,6-dihydro-pyridin-3-yl)-pyrimidin-4-yl]-amide] | > 6.30
Cc1ccc(C)c(CNc2cc(-c3ccc(=O)n(C)c3)nc(Oc3c(C)cccc3F)n2)c1 [Example 301, 5-[6-(2,5-Dimethyl-benzylamino)-2-(2-fluoro-6-methyl-phenoxy)-pyrimidin-4-yl]-1-methyl-1H-pyridin-2-one] | > 6.30
Cc1cccc(Cl)c1Oc1nc(NS(=O)(=O)C(C)C)cc(-c2ccc(=O)n(C)c2)n1 [Example 104, Propane-2-sulfonic acid [2-(2-chloro-6-methyl-phenoxy)-6-(1-methyl-6-oxo-1,6-dihydro-pyridin-3-yl)-pyrimidin-4-yl]-amide] | > 6.30
Cc1cccc(F)c1Oc1nc(NCc2ccccc2)cc(-c2cc(C)c(=O)n(C)c2)n1 [Example 296, 5-[6-Benzylamino-2-(2-fluoro-6-methyl-phenoxy)-pyrimidin-4-yl]-1,3-dimethyl-1H-pyridin-2-one] | > 6.30
CCC[C@H](C)S(=O)(=O)Nc1cc(-c2ccc(=O)n(C)c2)nc(Oc2c(F)ccc(C)c2Cl)n1 [Example 228, (2S)-Pentane-2-sulfonic acid [2-(2-chloro-6-fluoro-3-methyl-phenoxy)-6-(1-methyl-6-oxo-1,6-dihydro-pyridin-3-yl)-pyrimidin-4-yl]-amide] | > 6.30
Cc1cc(-c2cc(NS(=O)(=O)C(C)C)nc(Oc3ccc(F)cc3F)n2)cn(CC(C)C)c1=O [Example 48, Propane-2-sulfonic acid [2-(2,4-difluoro-phenoxy)-6-(1-isobutyl-5-methyl-6-oxo-1,6-dihydro-pyridin-3-yl)-pyrimidin-4-yl]-amide] | < 5.30
CCC[C@H](C)Nc1cc(-c2ccc(=O)n(C)c2)nc(Oc2c(C)cccc2Cl)n1 [Example 314, (S)-5-[2-(2-Chloro-6-methyl-phenoxy)-6-(1-methyl-butylamino)-pyrimidin-4-yl]-1-methyl-1H-pyridin-2-one] | > 6.30
CCCCS(=O)(=O)Nc1cc(-c2cc(C)c(=O)n(C)c2)nc(Oc2cc(Cl)ccc2Cl)n1 [Example 13, Butane-1-sulfonic acid [2-(2,5-dichloro-phenoxy)-6-(1,5-dimethyl-6-oxo-1,6-dihydro-pyridin-3-yl)-pyrimidin-4-yl]-amide] | > 6.30

Structure (SMILES) | pIC50
CCCCn1cc(-c2cc(NS(=O)(=O)C(C)C)nc(Oc3ccc(F)cc3F)n2)cc(C)c1=O [Example 46, Propane-2-sulfonic acid [6-(1-butyl-5-methyl-6-oxo-1,6-dihydro-pyridin-3-yl)-2-(2,4-difluoro-phenoxy)-pyrimidin-4-yl]-amide] | < 5.30
Cc1cccc(F)c1Oc1nc(NS(=O)(=O)C(C)C)c(C)c(-c2cc(C)c(=O)n(C)c2)n1 [Example 162, Propane-2-sulfonic acid [6-(1,5-dimethyl-6-oxo-1,6-dihydro-pyridin-3-yl)-2-(2-fluoro-6-methyl-phenoxy)-5-methyl-pyrimidin-4-yl]-amide] | > 6.30
COC(C)CS(=O)(=O)Nc1cc(-c2cc(C)c(=O)n(C)c2)nc(Oc2c(C)cccc2C)n1 (centres unmarked) [Example 85, N-(6-(1,5-dimethyl-6-oxo-1,6-dihydropyridin-3-yl)-2-(2,6-dimethylphenoxy)pyrimidin-4-yl)-2-methoxypropane-1-sulfonamide] | > 6.30
CCCCNc1cc(-c2ccc(=O)n(C)c2)nc(Oc2c(C)cccc2Cl)n1 [Example 312, 5-[6-Butylamino-2-(2-chloro-6-methyl-phenoxy)-pyrimidin-4-yl]-1-methyl-1H-pyridin-2-one] | > 6.30
CCCS(=O)(=O)Nc1cc(-c2cc(C)c(=O)n(C)c2)nc(Oc2cnccc2C)n1 [Example 112, Propane-1-sulfonic acid [6-(1,5-dimethyl-6-oxo-1,6-dihydro-pyridin-3-yl)-2-(4-methyl-pyridin-3-yloxy)-pyrimidin-4-yl]-amide] | > 6.30
CCS(=O)(=O)Cc1cc(-c2cc(C)c(=O)n(C)c2)nc(Oc2ccc(F)cc2F)n1 [Example 96, 5-[2-(2,4-Difluoro-phenoxy)-6-ethanesulfonylmethyl-pyrimidin-4-yl]-1,3-dimethyl-1H-pyridin-2-one] | > 6.30
CCCS(=O)(=O)Nc1nc(Oc2c(F)cccc2Cl)nc(-c2ccc(=O)n(C)c2)n1 [Example 181, Propane-1-sulfonic acid [4-(2-chloro-6-fluoro-phenoxy)-6-(1-methyl-6-oxo-1,6-dihydro-pyridin-3-yl)-[1,3,5]triazin-2-yl]-amide] | > 6.30
Cc1cccc(C#N)c1Oc1nc(NCc2ccccc2)cc(-c2ccc(=O)n(C)c2)n1 [Example 320, 2-[4-Benzylamino-6-(1-methyl-6-oxo-1,6-dihydro-pyridin-3-yl)-pyrimidin-2-yloxy]-3-methyl-benzonitrile] | > 6.30
CCCS(=O)(=O)Nc1cc(-c2cc(C)c(=O)n(C)c2)nn1C [Example 336, Propane-1-sulfonic acid [5-(1,5-dimethyl-6-oxo-1,6-dihydro-pyridin-3-yl)-2-methyl-2H-pyrazol-3-yl]-amide] | 5.30 to 6.30
CCCCS(=O)(=O)Nc1cc(-c2cc(C)c(=O)n(C)c2)nc(Oc2cc(C(C)C)ccc2Cl)n1 [Example 38, Butane-1-sulfonic acid [2-(2-chloro-5-isopropyl-phenoxy)-6-(1,5-dimethyl-6-oxo-1,6-dihydro-pyridin-3-yl)-pyrimidin-4-yl]-amide] | > 6.30
Cc1cccc(C#N)c1Oc1nc(NCc2ccccn2)cc(-c2ccc(=O)n(C)c2)n1 [Example 319, 3-Methyl-2-{4-(1-methyl-6-oxo-1,6-dihydro-pyridin-3-yl)-6-[(pyridin-2-ylmethyl)-amino]-pyrimidin-2-yloxy}-benzonitrile] | > 6.30
Cc1cc(F)cc(Cl)c1Oc1nc(NS(=O)(=O)C(C)C)cc(-c2cc(C)c(=O)n(C)c2)n1 [Example 100, Propane-2-sulfonic acid [2-(2-chloro-4-fluoro-6-methyl-phenoxy)-6-(1,5-dimethyl-6-oxo-1,6-dihydro-pyridin-3-yl)-pyrimidin-4-yl]-amide] | > 6.30
Cc1ccc(Cl)cc1Oc1nc(NS(=O)(=O)C(C)C)cc(-c2cc(C)c(=O)n(C)c2)n1 [Example 6, Propane-2-sulfonic acid [2-(5-chloro-2-methyl-phenoxy)-6-(1,5-dimethyl-6-oxo-1,6-dihydro-pyridin-3-yl)-pyrimidin-4-yl]-amide] | > 6.30
CCCCS(=O)(=O)Nc1cc(-c2cc(C)c(=O)n(C)c2)nc(Oc2ccccc2Cl)n1 [Example 16, Butane-1-sulfonic acid [2-(2-chloro-phenoxy)-6-(1,5-dimethyl-6-oxo-1,6-dihydro-pyridin-3-yl)-pyrimidin-4-yl]-amide] | > 6.30
CCCCS(=O)(=O)Nc1cc(-c2cc(C)c(=O)n(C)c2)nc(OC2CCCCC2)n1 [Example 249, Butane-1-sulfonic acid [2-cyclohexyloxy-6-(1,5-dimethyl-6-oxo-1,6-dihydro-pyridin-3-yl)-pyrimidin-4-yl]-amide] | > 6.30
CCCC(C)S(=O)(=O)Nc1cc(-c2ccc(=O)n(C)c2)nc(Oc2c(C)cccc2Cl)n1 (centres unmarked) [Example 243, Pentane-2-sulfonic acid [2-(2-chloro-6-methyl-pphenoxy)-6-(1-methyl-6-oxo-1,6-dihydro-pyridin-3-yl)-pyrimidin-4-yl]-amide] | > 6.30
